Consider 13 molecules from patent publication US12227501B2, “3-amino-2-[2-(acylamino)pyridin-4-yl]-1,5,6,7-tetrahydro-4h-pyrrolo[3,2-c]pyridin-4-one as CSNK1 inhibitors” (Bayer Aktiengesellschaft, priority 2019, dated 2025).

Holding throughout (type): biochemical
The target in assay [1] is T1, human CSNK1A1 (Homo sapiens (Human), UniProt P48729). The assay is described as follows: CSNK1A1 Assay 2 (ADP-Glo, 1 μM ATP). To be noted: substrate biotin-Ahx-KRRRAL-pS-VASLPGL, read-out: CSNK1A1 Assay 2 IC50 [mol/l] (median). Summed up:
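Full-length human CSNK1A1 as an N-terminal GST fusion (baculovirus/insect cells) with biotinylated peptide substrate biotin-Ahx-KRRRAL-pS-VASLPGL and 1 μM ATP, in HEPES pH 7.5 buffer. Compounds were pre-incubated with enzyme (~0.0375 ng/μL) for 15 min at 22 °C. Generated ADP was read by ADP-Glo luminescence as the activity measure.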
On the technique in general: ADP-Glo turns the ADP formed in a reaction into a luminescent signal.

A further assay deals with human CSNK1D (Homo sapiens (Human), UniProt P48730). The assay is described as follows: CSNK1D Assay (ADP-Glo, 1 μM ATP). To be noted: read-out: CSNK1D IC50 [mol/l] (median). The method, boiled down: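 GST-tagged full-length human CSNK1D from baculovirus-infected insect cells, typically ~0.5 ng/μL, with biotinylated peptide substrate and 1 μM ATP in HEPES pH 7.5 buffer. Compound is preincubated with enzyme 15 min at 22 °C. ADP formed is quantified by ADP-Glo luminescence.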

For assay [2], the target named is T1, human CSNK1A1. The assay is described as follows: CSNK1A1 High ATP Assay (ADP-Glo, 1 mM ATP). Particulars: read-out: CSNK1A1 high ATP assay IC50 [mol/l] (median). The method, boiled down: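 GST-tagged full-length human CSNK1A1 from baculovirus-infected insect cells (typically about 0.4 ng/μL), pre-incubated with compound 15 min at 22 °C. Reaction with biotinylated peptide biotin-Ahx-KRRRAL-pS-VASLPGL at 1 mM ATP. ADP formed read by ADP-Glo luminescence.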

For assay [3], the target named is wild-type Epidermal Growth Factor Receptor (EGFR) (Homo sapiens (Human), UniProt P00533). The assay is described as follows: WT-EGFR Kinase Assay (TR-FRET, 2 mM ATP). For orientation: TR-FRET usually uses a lanthanide donor and a delayed reading to cut background.
Where [4] appears, read: EGFR Wildtyp- 2 mM ATP IC50 [mol/l] (median).
Setting [5] is: read-out: EGFR Wildtyp- 2 mM ATP IC50 [mol/l] (median).

Where “and” joins values, the source holds several entries; their conditions need not be identical. Identical values can stand only once. Like-named read-outs stand apart in the source and are kept apart here.

wild-type Epidermal Growth Factor Receptor (EGFR), sequence (P00533 669-1210): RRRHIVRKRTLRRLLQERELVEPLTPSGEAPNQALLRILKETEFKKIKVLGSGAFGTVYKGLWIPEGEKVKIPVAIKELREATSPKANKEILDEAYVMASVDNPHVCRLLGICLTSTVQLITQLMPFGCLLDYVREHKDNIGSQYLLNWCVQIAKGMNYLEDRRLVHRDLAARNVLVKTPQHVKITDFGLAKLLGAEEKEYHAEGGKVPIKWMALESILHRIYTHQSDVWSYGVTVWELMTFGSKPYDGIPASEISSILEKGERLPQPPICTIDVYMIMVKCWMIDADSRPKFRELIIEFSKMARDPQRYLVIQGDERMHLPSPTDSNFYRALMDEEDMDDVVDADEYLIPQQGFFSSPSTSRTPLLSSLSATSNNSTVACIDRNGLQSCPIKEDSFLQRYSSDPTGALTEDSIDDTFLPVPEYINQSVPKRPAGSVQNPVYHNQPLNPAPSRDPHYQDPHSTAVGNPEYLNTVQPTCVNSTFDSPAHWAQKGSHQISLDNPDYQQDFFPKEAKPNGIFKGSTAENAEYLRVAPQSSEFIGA
T1 sequence (P48729 whole entry, the tested form may be a part): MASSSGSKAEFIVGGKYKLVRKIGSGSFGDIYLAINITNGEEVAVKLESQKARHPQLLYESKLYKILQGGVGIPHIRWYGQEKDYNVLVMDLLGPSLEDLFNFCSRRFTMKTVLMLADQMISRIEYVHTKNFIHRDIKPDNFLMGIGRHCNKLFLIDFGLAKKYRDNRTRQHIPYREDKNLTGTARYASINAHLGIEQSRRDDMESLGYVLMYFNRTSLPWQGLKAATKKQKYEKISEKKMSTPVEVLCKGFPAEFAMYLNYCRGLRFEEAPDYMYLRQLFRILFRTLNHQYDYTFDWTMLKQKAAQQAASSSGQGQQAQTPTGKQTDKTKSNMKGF
human CSNK1D, sequence (P48730 whole entry): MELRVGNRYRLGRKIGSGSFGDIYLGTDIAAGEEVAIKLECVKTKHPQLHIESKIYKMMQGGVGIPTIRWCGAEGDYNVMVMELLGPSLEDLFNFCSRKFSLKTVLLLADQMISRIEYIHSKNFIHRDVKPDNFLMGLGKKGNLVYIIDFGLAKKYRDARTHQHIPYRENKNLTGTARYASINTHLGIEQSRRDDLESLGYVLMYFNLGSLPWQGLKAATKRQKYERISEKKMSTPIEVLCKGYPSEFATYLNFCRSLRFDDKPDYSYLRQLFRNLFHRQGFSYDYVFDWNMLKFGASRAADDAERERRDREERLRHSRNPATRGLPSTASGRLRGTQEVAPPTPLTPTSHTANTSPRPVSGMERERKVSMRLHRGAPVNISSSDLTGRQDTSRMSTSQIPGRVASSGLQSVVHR

For `CN1CCc2[nH]c(-c3ccnc(NC(=O)C(CO)c4ccc(F)cc4)c3)c(Nc3ccccc3)c2C1=O` (single isomer, unassigned) [Example 18, N-[4-(3-anilino-5-methyl-4-oxo-4,5,6,7-tetrahydro-1H-pyrrolo[3,2-c]pyridin-2-yl)pyridin-2-yl]-2-(4-fluorophenyl)-3-hydroxypropanamide], the IC50 at human CSNK1A1 [1] worked out at 20.4 nM; on human CSNK1D, 44.7 nM; on human CSNK1A1 [2], 1790 nM; in assay [3] (setting [4]), 14900 nM.
Consider `CN1CCc2[nH]c(-c3ccnc(NC(=O)C(CO)c4ccc(F)cc4)c3)c(Nc3ccccc3)c2C1=O` (single isomer, unassigned) [Example 19, N-[4-(3-anilino-5-methyl-4-oxo-4,5,6,7-tetrahydro-1H-pyrrolo[3,2-c]pyridin-2-yl)pyridin-2-yl]-2-(4-fluorophenyl)-3-hydroxypropanamide], for which the IC50 at human CSNK1A1 [1] is 1.7 nM; on human CSNK1D, 6.55 nM; on human CSNK1A1 [2], 10.6 nM; in assay [3] (setting [4]), > 20 µM (5×) and 16.1 µM.
With `CCN1CCc2[nH]c(-c3ccnc(NC(=O)C(C)c4ccc(F)cc4)c3)c(Nc3ccccc3)c2C1=O` (single isomer, unassigned) [Example 25, N-[4-(3-anilino-5-ethyl-4-oxo-4,5,6,7-tetrahydro-1H-pyrrolo[3,2-c]pyridin-2-yl)pyridin-2-yl]-2-(4-fluorophenyl)propanamide], the IC50 was 55.4 nM on human CSNK1A1 [1]; 88.6 nM on human CSNK1D; 12700 nM and > 20000 nM on human CSNK1A1 [2]; greater than 20000 nM in assay [3] (setting [4]).
Turning to `CCN1CCc2[nH]c(-c3ccnc(NC(=O)C(C)c4ccc(F)cc4)c3)c(Nc3ccccc3)c2C1=O` (single isomer, unassigned) [Example 26, N-[4-(3-anilino-5-ethyl-4-oxo-4,5,6,7-tetrahydro-1H-pyrrolo[3,2-c]pyridin-2-yl)pyridin-2-yl]-2-(4-fluorophenyl)propanamide], the IC50 is 4.05 nM on human CSNK1A1 [1], 23.1 nM at human CSNK1D, 288 nM on human CSNK1A1 [2] and greater than 20000 nM in assay [3] (setting [5]).
With `CC(C(=O)Nc1cc(-c2[nH]c3c(c2Nc2ccccc2)C(=O)NC(C)(C)C3)ccn1)c1ccc(F)cc1` (single isomer, unassigned) [Example 39, N-[4-(3-anilino-6,6-dimethyl-4-oxo-4,5,6,7-tetrahydro-1H-pyrrolo[3,2-c]pyridin-2-yl)pyridin-2-yl]-2-(4-fluorophenyl)propanamide], the IC50 is 179 nM on human CSNK1A1 [1]; 214 nM on human CSNK1D; 2.84 µM and 2.9 µM and > 20 µM (2×) at human CSNK1A1 [2]; greater than 20000 nM in assay [3] (setting [4]).
Take `CC(C(=O)Nc1cc(-c2[nH]c3c(c2Nc2ccccc2F)C(=O)N(C)CC3)ccn1)c1ccc(F)cc1` (single isomer, unassigned) [Example 42, N-{4-[3-(2-fluoroanilino)-5-methyl-4-oxo-4,5,6,7-tetrahydro-1H-pyrrolo[3,2-c]pyridin-2-yl]pyridin-2-yl}-2-(4-fluorophenyl)propanamide]: the IC50 on human CSNK1A1 [1] was 2.4 nM; at human CSNK1D, 4.92 nM; on human CSNK1A1 [2] it was 57.2 nM; in assay [3] (setting [5]), greater than 20000 nM.
For `CN1C(=O)c2c([nH]c(-c3ccnc(NC(=O)C(CC(F)F)c4ccc(F)cc4)c3)c2Nc2ccccc2F)CC1(C)C` (single isomer, unassigned) [Example 46, 4,4-difluoro-N-{4-[3-(2-fluoroanilino)-5,6,6-trimethyl-4-oxo-4,5,6,7-tetrahydro-1H-pyrrolo[3,2-c]pyridin-2-yl]pyridin-2-yl}-2-(4-fluorophenyl)butanamide], the IC50 at human CSNK1A1 [1] is 6.64 nM; on human CSNK1D, 8.33 nM; at human CSNK1A1 [2] it was 119 nM; in assay [3] (setting [4]), greater than 20000 nM.
As for `CN1C(=O)c2c([nH]c(-c3ccnc(NC(=O)C(CC(F)F)c4ccc(F)cc4)c3)c2Nc2ccccc2F)CC1(C)C` (single isomer, unassigned) [Example 47, 4,4-difluoro-N-{4-[3-(2-fluoroanilino)-5,6,6-trimethyl-4-oxo-4,5,6,7-tetrahydro-1H-pyrrolo[3,2-c]pyridin-2-yl]pyridin-2-yl}-2-(4-fluorophenyl)butanamide], the IC50 at human CSNK1A1 [1] was 163 nM; on human CSNK1D, 151 nM; on human CSNK1A1 [2] it was greater than 20000 nM; in assay [3] (setting [5]) it was greater than 20000 nM.
Regarding `CC1(C)Cc2[nH]c(-c3ccnc(NC(=O)C(CC(F)F)c4ccc(F)cc4)c3)c(Nc3ccccc3)c2C(=O)N1` (single isomer, unassigned) [Example 50, N-[4-(3-anilino-6,6-dimethyl-4-oxo-4,5,6,7-tetrahydro-1H-pyrrolo[3,2-c]pyridin-2-yl)pyridin-2-yl]-4,4-difluoro-2-(4-fluorophenyl)butanamide], the IC50 is 51 nM on human CSNK1A1 [1], 68.2 nM at human CSNK1D, 2460 nM on human CSNK1A1 [2] and greater than 20000 nM in assay [3] (setting [5]).
Regarding `CC(C(=O)Nc1cc(-c2[nH]c3c(c2Nc2ccccc2)C(=O)N(C)CC3)ccn1)c1ccncc1` (single isomer, unassigned) [Example 74, N-[4-(3-anilino-5-methyl-4-oxo-4,5,6,7-tetrahydro-1H-pyrrolo[3,2-c]pyridin-2-yl)pyridin-2-yl]-2-(pyridin-4-yl)propanamide], the IC50 at human CSNK1A1 [1] was 33.9 nM; on human CSNK1D it was 55.1 nM; at human CSNK1A1 [2], 599 nM; in assay [3] (setting [4]), greater than 20000 nM.
On to `CC1(C)Cc2[nH]c(-c3ccnc(NC(=O)C(CC(F)F)c4ccc(F)cc4)c3)c(Nc3ccccc3)c2C(=O)N1` (single isomer, unassigned; (+)) [Example 49, (+)-N-[4-(3-anilino-6,6-dimethyl-4-oxo-4,5,6,7-tetrahydro-1H-pyrrolo[3,2-c]pyridin-2-yl)pyridin-2-yl]-4,4-difluoro-2-(4-fluorophenyl)butanamide], for which the IC50 at human CSNK1A1 [1] was 4.57 nM; at human CSNK1D, 7.3 nM; at human CSNK1A1 [2], 19.6 nM; in assay [3] (setting [4]), greater than 20000 nM.
On the same counts, the results for `O=C1NC2(CCC2)Cc2[nH]c(-c3ccnc(NC(=O)C(CC(F)F)c4ccc(F)cc4)c3)c(Nc3ccccc3)c21` (single isomer, unassigned; (+)) [Example 55, (+)-N-[4-(3′-anilino-4′-oxo-1′,4′,5′,7′-tetrahydrospiro[cyclobutane-1,6′-pyrrolo[3,2-c]pyridin]-2′-yl)pyridin-2-yl]-4,4-difluoro-2-(4-fluorophenyl)butanamide] are 4.25 nM, 4.38 nM, 9.1 nM and 1170 nM.
The corresponding values for `CN(C)CCCC(C(=O)Nc1cc(-c2[nH]c3c(c2Nc2ccccc2)C(=O)N(C)CC3)ccn1)c1ccccc1` (single isomer, unassigned; (+)) [Example 60, (+)-N-[4-(3-anilino-5-methyl-4-oxo-4,5,6,7-tetrahydro-1H-pyrrolo[3,2-c]pyridin-2-yl)pyridin-2-yl]-5-(dimethylamino)-2-phenylpentanamide] are 7.34 nM, 11.8 nM, 437 nM and 7340 nM.
